# Assay results published in US20260327221A1, “INHIBITORS OF CYCLIC GMP-AMP SYNTHASE AND USES THEREOF” (Ventus Therapeutics U.S., Inc., priority 2023, published 2026).
# Target: hcGAS (Homo sapiens, UniProt Q8N884)
# Assay: hcGAS LCMS assay (direct measurement of cGAMP production by LC/MS)
# Assay type: biochemical
# Conditions: 4 h incubation with enzyme and substrates; cGAMP production by LC/MS; class symbols; read-out: hcGAS LCMS IC50
# Procedure, shortened: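 Enzyme, substrates (ATP, GTP) and compound incubated 4 h, then quenched with acetonitrile/water containing 0.15 uM 13C/15N-labeled cGAMP internal standard. cGAMP formed quantified directly by LC/MS on HILIC amide column; IC50 values reported in potency bins.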
# hcGAS, sequence (Q8N884 whole entry): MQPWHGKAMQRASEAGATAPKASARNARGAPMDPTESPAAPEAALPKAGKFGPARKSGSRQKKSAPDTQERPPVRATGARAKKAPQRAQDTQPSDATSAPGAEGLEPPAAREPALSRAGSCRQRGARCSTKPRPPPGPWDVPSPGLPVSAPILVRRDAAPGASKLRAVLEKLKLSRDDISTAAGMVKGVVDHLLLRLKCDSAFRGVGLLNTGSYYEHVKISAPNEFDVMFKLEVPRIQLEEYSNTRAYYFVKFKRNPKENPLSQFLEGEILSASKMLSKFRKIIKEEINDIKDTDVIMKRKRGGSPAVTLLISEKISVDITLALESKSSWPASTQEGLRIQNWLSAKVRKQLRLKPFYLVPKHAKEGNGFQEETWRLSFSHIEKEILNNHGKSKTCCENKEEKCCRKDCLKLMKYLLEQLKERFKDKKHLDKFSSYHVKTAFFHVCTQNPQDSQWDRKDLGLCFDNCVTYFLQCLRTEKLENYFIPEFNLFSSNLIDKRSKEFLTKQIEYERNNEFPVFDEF
row,Compound,IC50
1,"COc1cccc(OC)c1-c1cc(C(=O)Nc2nnc(-n3nccc3N)s2)oc(=O)c1OCCN1CCOCC1 [Compound 22, N-(5-(5-amino-1H-pyrazol-1-yl)-1,3,4-thiadiazol-2-yl)-4-(2,6-dimethoxyphenyl)-3-(2-morpholinoethoxy)-2-oxo-2H-pyran-6-carboxamide]",1 to 5 nM
2,"COc1cccnc1-c1cc(C(=O)Nc2nnc(-n3nccc3N)s2)oc(=O)c1O[C@H]1CCC[C@H](OC)C1 (single isomer, unassigned) [113B*]",0.5 to 1 nM
3,"COC[C@H](O)COc1c(-c2c(OC)cccc2OC)cc(C(=O)Nc2nnc(-n3nccc3N)s2)oc1=O [Compound 63A*, (S)—N-(5-(5-amino-1H-pyrazol-1-yl)-1,3,4-thiadiazol-2-yl)-4-(2,6-dimethoxyphenyl)-3-(2-hydroxy-3-methoxypropoxy)-2-oxo-2H-pyran-6-carboxamide]",0.5 to 1 nM
4,"COCC(COC)Oc1c(-c2c(OC)cccc2OC)cc(C(=O)Nc2nnc(-n3nccc3N)s2)oc1=O [Compound 20, N-(5-(5-amino-1H-pyrazol-1-yl)-1,3,4-thiadiazol-2-yl)-4-(2,6-dimethoxyphenyl)-3-((1,3-dimethoxypropan-2-yl)oxy)-2-oxo-2H-pyran-6-carboxamide]",1 to 5 nM
5,"COCCOc1c(-c2c(F)cccc2OC)cc(C(=O)Nc2nnc(-n3nccc3N)s2)oc1=O [Compound 13, N-(5-(5-amino-1H-pyrazol-1-yl)-1,3,4-thiadiazol-2-yl)-4-(2-fluoro-6-methoxyphenyl)-3-(2-methoxyethoxy)-2-oxo-2H-pyran-6-carboxamide]",0.5 to 1 nM
6,"COCCOc1c(-c2c(OC)ccnc2OC)cc(C(=O)Nc2nnc(-n3nccc3N)s2)oc1=O [Compound 19, N-(5-(5-amino-1H-pyrazol-1-yl)-1,3,4-thiadiazol-2-yl)-4-(2,4-dimethoxypyridin-3-yl)-3-(2-methoxyethoxy)-2-oxo-2H-pyran-6-carboxamide]",1 to 5 nM
7,"COc1cccc(OC)c1-c1cc(C(=O)Nc2nnc(-n3nccc3N)s2)oc(=O)c1O[C@@H](CO)C1CC1 [106B*, (R)-N-(5-(5-amino-1H-pyrazol-1-yl)-1,3,4-thiadiazol-2-yl)-3-(1-cyclopropyl-2-hydroxyethoxy)-4-(2,6-dimethoxyphenyl)-2-oxo-2H-pyran-6-carboxamide]",1 to 5 nM
8,"COc1cccc(OC)c1-c1cc(C(=O)Nc2nnc(-n3nccc3N)s2)oc(=O)c1OC[C@@H]1COCCO1 (single isomer, unassigned) [Compound 43A*]",0.5 to 1 nM
9,COCC(CN1CCSCC1)Oc1c(-c2c(OC)cccc2OC)cc(C(=O)Nc2nnc(-n3nccc3N)s2)oc1=O (centres unmarked) [78A*/78B*],5 to 20 nM
10,"COc1cccnc1-c1cc(C(=O)Nc2nnc(-n3nccc3N)s2)oc(=O)c1O[C@H](C)CO [Compound 107B, (R)-N-(5-(5-amino-1H-pyrazol-1-yl)-1,3,4-thiadiazol-2-yl)-3-((1-hydroxypropan-2-yl)oxy)-4-(3-methoxypyridin-2-yl)-2-oxo-2H-pyran-6-carboxamide]",0.5 to 1 nM
11,"COc1cccc(Cl)c1-c1cc(C(=O)Nc2nnc(-n3nccc3N)s2)oc(=O)c1OCCO (single isomer, unassigned) [Compound 34B*, (Ra)—N-(5-(5-amino-1H-pyrazol-1-yl)-1,3,4-thiadiazol-2-yl)-4-(2-chloro-6-methoxyphenyl)-3-(2-hydroxyethoxy)-2-oxo-2H-pyran-6-carboxamide]",< 0.5 nM
12,"COc1cccc(OC)c1-c1cc(C(=O)Nc2nnc(-n3nccc3N)s2)oc(=O)c1O[C@H]1CCC[C@H](O)C1 (single isomer, unassigned) [109B*]",0.5 to 1 nM
13,"COc1c(-c2c(C#N)cnn2C)cc(C(=O)Nc2nnc(-n3nccc3C)s2)oc1=O [Compound 14, 4-(4-cyano-1-methyl-1H-pyrazol-5-yl)-3-methoxy-N-(5-(5-methyl-1H-pyrazol-1-yl)-1,3,4-thiadiazol-2-yl)-2-oxo-2H-pyran-6-carboxamide]",20 to 60 nM
14,"COc1cccc(OC)c1-c1cc(C(=O)Nc2nnc(-n3nccc3N)s2)oc(=O)c1O[C@@H]1CCC[C@@H](O)C1 (single isomer, unassigned) [109A*]",1 to 5 nM
